Laboratory results from patent US7494754B2, “Electrophotographic photoreceptor containing asymmetric naphthalenetetracarboxylic acid diimide derivatives and electrophotographic imaging apparatus employing the same” (Samsung Electronics Co., Ltd., priority 2005, dated 2009).

Assay: Solubility test in organic solvents
Format: physicochemical
Settings: for Methylene chloride (g): amount of solvent required to completely dissolve 1 g of the tested compound / Tetrahydrofuran (g): amount of solvent required to completely dissolve 1 g of the tested compound: room temperature, 1 g compound
Procedure: 1 g of a compound to be tested was poured into a test tube with stirring at room temperature and solvents listed in Table 1 were slowly added drop by drop. The amounts of the solvents required to completely dissolve 1 g of the tested compound were measured.

Methylene chloride (g): amount of solvent required to completely dissolve 1 g of the tested compound [g]	Tetrahydrofuran (g): amount of solvent required to completely dissolve 1 g of the tested compound [g]	solubility in organic solvents (in words)	Structure (SMILES)
1.5	12	–	CCCCN1C(=O)c2ccc3c4c(ccc(c24)C1=O)C(=O)N(C(C)c1ccccc1)C3=O (stereo not shown) [Compound (4)]
17	74	very poor solubility	CCCCN1C(=O)c2ccc3c4c(ccc(c24)C1=O)C(=O)N(CCCC)C3=O [Compound (40)]
1.3	7	–	CCCCN1C(=O)c2ccc3c4c(ccc(c24)C1=O)C(=O)N(C(CC)c1ccccc1)C3=O (stereo not shown) [Compound (12)]
3.5	50	poor solubility	CC(c1ccccc1)N1C(=O)c2ccc3c4c(ccc(c24)C1=O)C(=O)N(C(C)c1ccccc1)C3=O (stereo not shown) [Compound (30)]
